Measured values reported in the NIST ThermoML archive (doi:10.1016/j.jct.2006.05.003).

Tests used:
[1] = 101 kPa, Liquid
[2] = refractive index (Na D-line) (dimensionless); conditions: 101.33 kPa, Liquid, Standard Abbe refractometry
[3] = refractive index (Na D-line) (dimensionless); xn = mol fraction of the nth substance listed; conditions: 101 kPa, Liquid, Standard Abbe refractometry
[4] = xn = mol fraction of the nth substance listed; conditions: 101 kPa, Liquid

CCC(C)Cl (stereo not given) [2-chlorobutane]
Conditions	mass density, [1] [kg/m3]	refractive index, [2]
298.15 K	867.4	1.39404
313.15 K	850.13	1.38573

CC(C)(C)Cl [2-chloro-2-methylpropane]
Conditions	mass density, [1] [kg/m3]	refractive index, [2]
298.15 K	836.45	1.38224
313.15 K	818.31	1.37314

C1COCCO1 [1,4-dioxane] + CCCCCl
x1 = 1
Conditions	mass density, [4] [kg/m3]	refractive index, [3]
298.15 K	1027.87	1.41995
313.15 K	1010.69	1.41264

C1COCCO1 [1,4-dioxane] + CCCCl
x1 = 1
Conditions	mass density, [4] [kg/m3]	refractive index, [3]
298.15 K	1027.87	1.41995
313.15 K	1010.69	1.41264

CCCCCl [1-chlorobutane]
Conditions	mass density, [1] [kg/m3]	refractive index, [2]
298.15 K	880.69	1.3995
313.15 K	863.82	1.39133

CC(C)CCl [1-chloro-2-methylpropane]
Conditions	mass density, [1] [kg/m3]	refractive index, [2]
298.15 K	871.13	1.39528
313.15 K	853.51	1.38686

CCCCl [1-chloropropane] + C1COCCO1
Conditions	mass density, [4] [kg/m3]	refractive index, [3]
298.15 K, x2 = 0	884.26	1.3856
298.15 K, x2 = 0.1027	898.64	1.38919
298.15 K, x2 = 0.2077	913.41	1.39281
298.15 K, x2 = 0.3029	926.89	1.39609
298.15 K, x2 = 0.4034	941.19	1.39957
298.15 K, x2 = 0.506	955.87	1.40308
298.15 K, x2 = 0.6062	970.28	1.40651
298.15 K, x2 = 0.706	984.73	1.4099
298.15 K, x2 = 0.8081	999.6	1.41336
298.15 K, x2 = 0.9059	1013.96	1.41673
298.15 K, x2 = 0.9486	1020.26	1.41818
313.15 K, x2 = 0	865.14	1.37673
313.15 K, x2 = 0.1009	879.74	1.38047
313.15 K, x2 = 0.2026	894.27	1.38432
313.15 K, x2 = 0.3067	909.2	1.38812
313.15 K, x2 = 0.4061	923.53	1.39169
313.15 K, x2 = 0.5056	937.97	1.39523
313.15 K, x2 = 0.6044	952.38	1.39872
313.15 K, x2 = 0.7114	968.04	1.40252
313.15 K, x2 = 0.8026	981.42	1.40576
313.15 K, x2 = 0.9011	995.98	1.40922
313.15 K, x2 = 0.951	1003.38	1.41097

C1COCCO1 [1,4-dioxane] + CCC(C)Cl
x1 = 1
Conditions	mass density, [4] [kg/m3]	refractive index, [3]
298.15 K	1027.87	1.41995
313.15 K	1010.69	1.41264

C1COCCO1 [1,4-dioxane]
Conditions	mass density, [1] [kg/m3]	refractive index, [2]
298.15 K	1027.87	1.41995
313.15 K	1010.69	1.41264

C1COCCO1 [1,4-dioxane] + CC(C)(C)Cl
x1 = 1
Conditions	mass density, [4] [kg/m3]	refractive index, [3]
298.15 K	1027.87	1.41995
313.15 K	1010.69	1.41264

CCCCCl [1-chlorobutane] + C1COCCO1
Conditions	mass density, [4] [kg/m3]	refractive index, [3]
298.15 K, x2 = 0	880.69	1.3995
298.15 K, x2 = 0.0418	885.54	1.40011
298.15 K, x2 = 0.1141	894.14	1.40119
298.15 K, x2 = 0.2426	910.06	1.40328
298.15 K, x2 = 0.3358	922.21	1.40491
298.15 K, x2 = 0.4518	938.11	1.40709
298.15 K, x2 = 0.5509	952.44	1.40908
298.15 K, x2 = 0.5914	958.52	1.40994
298.15 K, x2 = 0.738	981.64	1.41323
298.15 K, x2 = 0.8235	995.99	1.41529
298.15 K, x2 = 0.9104	1011.29	1.41752
298.15 K, x2 = 0.987	1025.41	1.4196
313.15 K, x2 = 0	863.82	1.39133
313.15 K, x2 = 0.0344	867.83	1.39188
313.15 K, x2 = 0.117	877.61	1.39321
313.15 K, x2 = 0.2279	891.26	1.39506
313.15 K, x2 = 0.3499	907.15	1.39732
313.15 K, x2 = 0.4442	920.15	1.39917
313.15 K, x2 = 0.55	935.51	1.40138
313.15 K, x2 = 0.645	950.02	1.40351
313.15 K, x2 = 0.7456	966.15	1.40591
313.15 K, x2 = 0.8238	979.22	1.40786
313.15 K, x2 = 0.9143	995.01	1.41024
313.15 K, x2 = 0.9636	1003.94	1.41159

C1COCCO1 [1,4-dioxane] + CC(C)CCl
x1 = 1
Conditions	mass density, [4] [kg/m3]	refractive index, [3]
298.15 K	1027.87	1.41995
313.15 K	1010.69	1.41264

CCC(C)Cl (stereo not given) [2-chlorobutane] + C1COCCO1
Conditions	mass density, [4] [kg/m3]	refractive index, [3]
298.15 K, x2 = 0	867.4	1.39404
298.15 K, x2 = 0.0417	872.75	1.3949
298.15 K, x2 = 0.1061	881.2	1.3963
298.15 K, x2 = 0.2514	901.2	1.3996
298.15 K, x2 = 0.3493	915.42	1.40193
298.15 K, x2 = 0.4771	934.94	1.40512
298.15 K, x2 = 0.5563	947.61	1.40721
298.15 K, x2 = 0.6462	962.58	1.40961
298.15 K, x2 = 0.7343	977.89	1.41208
298.15 K, x2 = 0.8244	994.21	1.41466
298.15 K, x2 = 0.9112	1010.56	1.41725
298.15 K, x2 = 0.9891	1025.72	1.41962
313.15 K, x2 = 0	850.13	1.38573
313.15 K, x2 = 0.0475	856.2	1.38674
313.15 K, x2 = 0.1318	867.4	1.38865
313.15 K, x2 = 0.239	882.36	1.3912
313.15 K, x2 = 0.3413	897.3	1.39378
313.15 K, x2 = 0.4574	915.03	1.39683
313.15 K, x2 = 0.5546	930.53	1.39949
313.15 K, x2 = 0.6429	945.17	1.40195
313.15 K, x2 = 0.7326	960.65	1.40449
313.15 K, x2 = 0.8209	976.52	1.40709
313.15 K, x2 = 0.9121	993.58	1.40985
313.15 K, x2 = 0.9525	1001.37	1.41113

CCCCl [1-chloropropane]
Conditions	mass density, [1] [kg/m3]	refractive index, [2]
298.15 K	884.26	1.3856
313.15 K	865.14	1.37673

CC(C)(C)Cl [2-chloro-2-methylpropane] + C1COCCO1
Conditions	mass density, [4] [kg/m3]	refractive index, [3]
298.15 K, x2 = 0	836.45	1.38224
298.15 K, x2 = 0.0458	844.01	1.38393
298.15 K, x2 = 0.1594	862.91	1.38814
298.15 K, x2 = 0.2576	879.78	1.39182
298.15 K, x2 = 0.3925	904.15	1.39689
298.15 K, x2 = 0.4632	917.47	1.39956
298.15 K, x2 = 0.5569	935.61	1.40312
298.15 K, x2 = 0.6611	956.29	1.40709
298.15 K, x2 = 0.7458	973.39	1.41033
298.15 K, x2 = 0.8395	992.69	1.4139
298.15 K, x2 = 0.9222	1010.32	1.41703
298.15 K, x2 = 0.9639	1019.57	1.41861
313.15 K, x2 = 0	818.31	1.37314
313.15 K, x2 = 0.0485	826.29	1.37502
313.15 K, x2 = 0.0903	833.3	1.37667
313.15 K, x2 = 0.2192	855.58	1.38175
313.15 K, x2 = 0.2827	866.86	1.38423
313.15 K, x2 = 0.3966	887.59	1.3888
313.15 K, x2 = 0.5029	907.54	1.39301
313.15 K, x2 = 0.6039	927.14	1.39702
313.15 K, x2 = 0.7025	946.96	1.40092
313.15 K, x2 = 0.8138	970.21	1.40529
313.15 K, x2 = 0.8959	987.89	1.4085
313.15 K, x2 = 0.9612	1002.17	1.41105

CC(C)CCl [1-chloro-2-methylpropane] + C1COCCO1
Conditions	mass density, [4] [kg/m3]	refractive index, [3]
298.15 K, x2 = 0	871.13	1.39528
298.15 K, x2 = 0.045	876.79	1.39616
298.15 K, x2 = 0.1196	886.36	1.39763
298.15 K, x2 = 0.2433	902.87	1.40025
298.15 K, x2 = 0.3412	916.58	1.40243
298.15 K, x2 = 0.4407	931.19	1.40471
298.15 K, x2 = 0.5447	947.22	1.40725
298.15 K, x2 = 0.6463	963.67	1.40983
298.15 K, x2 = 0.737	979.04	1.4123
298.15 K, x2 = 0.8305	995.63	1.41492
298.15 K, x2 = 0.9157	1011.45	1.41742
298.15 K, x2 = 0.9515	1018.31	1.41849
313.15 K, x2 = 0	853.51	1.38686
313.15 K, x2 = 0.0474	859.42	1.38783
313.15 K, x2 = 0.1492	872.58	1.39001
313.15 K, x2 = 0.2654	888.36	1.39259
313.15 K, x2 = 0.3687	903.12	1.39504
313.15 K, x2 = 0.4565	916.21	1.39721
313.15 K, x2 = 0.5541	931.39	1.39973
313.15 K, x2 = 0.6426	945.76	1.40211
313.15 K, x2 = 0.7423	962.69	1.40489
313.15 K, x2 = 0.8326	978.76	1.40752
313.15 K, x2 = 0.9112	993.38	1.40987
313.15 K, x2 = 0.9606	1002.9	1.41139
